Assay results as given in US8969589B2, “Compounds acting at multiple prostaglandin receptors giving a general anti-inflammatory response” (Allergan, Inc., priority 2011, dated 2015).

Experiments:
Type in all cases: cell-based
[1] = target: T1, human prostanoid TP receptor (Homo sapiens, UniProt P21731); assay: FLIPR Ca2+ signaling PG antagonist assay, TP stable cell line; details: antagonist Kb vs standard agonist U-46619; HEK-293 EBNA cells
T1 construct: expressed in transfected cells
T1 sequence (P21731 1-343): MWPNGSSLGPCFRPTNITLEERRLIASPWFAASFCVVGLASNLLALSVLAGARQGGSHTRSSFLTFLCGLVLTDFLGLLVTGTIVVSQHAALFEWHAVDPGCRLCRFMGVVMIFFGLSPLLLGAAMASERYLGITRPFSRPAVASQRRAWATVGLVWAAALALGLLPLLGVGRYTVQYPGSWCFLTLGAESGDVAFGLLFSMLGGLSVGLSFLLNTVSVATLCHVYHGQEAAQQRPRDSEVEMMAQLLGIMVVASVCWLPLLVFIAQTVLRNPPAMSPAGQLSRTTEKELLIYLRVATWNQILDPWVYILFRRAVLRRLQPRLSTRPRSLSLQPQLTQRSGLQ
Experimental: (§1) The above compounds were tested for PG antagonist activity as follows using human recombinant prostanoid receptor (DP1, EP1-4, FP, IP and TP) stable cell lines:
(§2) In order to measure the response of Gs and Gi coupled prostanoid receptors as a Ca^2+ signal, chimeric G protein cDNAs were used. Stable cell lines over-expressing human prostanoid DP1, EP1-4, FP, IP, and TP receptors were established as follows:
(§3) Briefly, human prostanoid DP1, EP2, and EP4 receptor cDNAs were co-transfected with chimeric Gqs cDNA containing a haemagglutanin (HA) epitope; human prostanoid EP3 receptors were co-transfected with chimeric Gqi-HA; human EP1, FP, IP, and TP receptor cDNAs were expressed with no exogenous G-proteins. Gqs and Gqi chimeric cDNAs (Molecular Devices, Sunnyvale, Calif., U.S.A.), as well as cDNAs of prostanoid receptors, were cloned into a pCEP4 vector with a hygromycin B selection marker. Transfection into HEK-293 EBNA (Epstein-Barr virus nuclear antigen) cells was achieved by the FuGENE 6 transfection Reagent (Roche Applied Science, Indianapolis, Ind., USA). Stable transfectants were selected according to hygromycin resistance. Because Gqs and Gqi contained an HA epitope, G-protein expression was detected by Western blotting analysis using anti-mouse HA monoclonal antibody and horseradish peroxidase (HRP)-conjugated secondary antibody, while functional expression of prostanoid receptors was detected by FLIPR screening (Matias et al., 2004). These stable cell lines were validated using previously published antagonists at 10 μM against serial dilutions of standard agonists by FLIPR functional assays for Ca^2− Signaling (as described below).
(§4) Ca^2+ signaling studies were performed using a FLIPR TETRA system (Molecular Devices, Sunnyvale, Calif., USA) in the 384-format. This is a high-throughput instrument for cell-based assays to monitor Ca^2+ signaling associated with GPCRs and ion channels. Cells were seeded at a density of 5×10^4 cells/well in BioCoat poly-D-lysine coated, black wall, clear bottom 384-well plates (BD Biosciences, Franklin lakes, N.J., USA) and allowed to attach overnight in an incubator at 37° C. The cells were then washed twice with HBSS-HEPES buffer (Hanks' balanced salt solution without bicarbonate and phenol red, 20 mM HEPES, pH 7.4) using an ELx405 Select CW Microplate Washer (BioTek, Winooski, Vt., USA). […] Cells were excited with LED (light emitting diode) excitation at 470-495 nm and emission was measured through an emission filter at 515-575 nm. Assay plates were read for 3.5 minutes using the FLIPR^TETRA. The peak increase in fluorescence intensity was recorded for each well. […]

[2] = target: T2, human prostanoid DP1 receptor (Homo sapiens, UniProt Q13258); assay: FLIPR Ca2+ signaling PG antagonist assay, DP1 stable cell line; details: antagonist Kb vs standard agonist BW 245C; HEK-293 EBNA cells with chimeric Gqs
T2 construct: expressed in transfected cells
T2 sequence (Q13258 1-359): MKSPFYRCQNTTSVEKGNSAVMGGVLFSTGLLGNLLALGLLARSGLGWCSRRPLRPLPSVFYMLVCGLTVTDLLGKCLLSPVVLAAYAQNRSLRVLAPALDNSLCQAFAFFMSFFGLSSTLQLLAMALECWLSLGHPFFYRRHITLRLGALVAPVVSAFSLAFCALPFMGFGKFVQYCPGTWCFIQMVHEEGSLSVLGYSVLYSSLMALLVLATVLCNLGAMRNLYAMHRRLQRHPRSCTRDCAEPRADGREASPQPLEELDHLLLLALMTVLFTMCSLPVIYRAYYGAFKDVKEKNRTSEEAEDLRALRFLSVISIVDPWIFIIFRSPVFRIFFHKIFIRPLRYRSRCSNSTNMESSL
Experimental: as §1, §2, §3, §4

[3] = target: T3, human prostanoid EP1 receptor (Homo sapiens, UniProt P34995); assay: FLIPR Ca2+ signaling PG antagonist assay, EP1 stable cell line; details: antagonist Kb vs standard agonist PGE2; HEK-293 EBNA cells
T3 construct: expressed in transfected cells
T3 sequence (P34995 1-402): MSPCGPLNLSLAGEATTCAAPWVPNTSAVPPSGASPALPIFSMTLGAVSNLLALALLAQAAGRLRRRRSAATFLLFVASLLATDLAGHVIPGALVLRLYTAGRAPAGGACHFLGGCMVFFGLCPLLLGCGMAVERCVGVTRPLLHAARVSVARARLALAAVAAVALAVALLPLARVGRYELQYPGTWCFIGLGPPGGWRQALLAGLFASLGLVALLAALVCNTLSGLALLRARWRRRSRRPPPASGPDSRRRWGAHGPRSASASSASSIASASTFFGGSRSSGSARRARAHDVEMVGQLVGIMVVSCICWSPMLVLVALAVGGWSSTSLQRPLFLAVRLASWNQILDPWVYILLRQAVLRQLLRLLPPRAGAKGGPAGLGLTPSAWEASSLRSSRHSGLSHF
Experimental: as §1, §2, §3, §4

[4] = target: T4, human prostanoid EP2 receptor (Homo sapiens, UniProt P43116); assay: FLIPR Ca2+ signaling PG antagonist assay, EP2 stable cell line; details: antagonist Kb vs standard agonist PGE2; HEK-293 EBNA cells with chimeric Gqs
T4 construct: expressed in transfected cells
Experimental: as §1, §2, §3, §4

[5] = target: T5, human prostanoid FP receptor (Homo sapiens, UniProt P43088); assay: FLIPR Ca2+ signaling PG antagonist assay, FP stable cell line; details: antagonist Kb vs standard agonist 17-phenyl-PGF2α; HEK-293 EBNA cells
T5 construct: expressed in transfected cells
Experimental: as §1, §2, §3, §4

[6] = target: T6, human prostanoid EP4 receptor (Homo sapiens, UniProt P35408); assay: FLIPR Ca2+ signaling PG antagonist assay, EP4 stable cell line; details: antagonist Kb vs standard agonist PGE2; HEK-293 EBNA cells with chimeric Gqs
T6 construct: expressed in transfected cells
Experimental: as §1, §2, §3, §4

[7] = target: T7, human prostanoid EP3 receptor (Homo sapiens, UniProt P43115); assay: FLIPR Ca2+ signaling PG antagonist assay, EP3 stable cell line; details: antagonist Kb vs standard agonist PGE2; HEK-293 EBNA cells with chimeric Gqi
T7 construct: expressed in transfected cells
T7 sequence (P43115 1-390): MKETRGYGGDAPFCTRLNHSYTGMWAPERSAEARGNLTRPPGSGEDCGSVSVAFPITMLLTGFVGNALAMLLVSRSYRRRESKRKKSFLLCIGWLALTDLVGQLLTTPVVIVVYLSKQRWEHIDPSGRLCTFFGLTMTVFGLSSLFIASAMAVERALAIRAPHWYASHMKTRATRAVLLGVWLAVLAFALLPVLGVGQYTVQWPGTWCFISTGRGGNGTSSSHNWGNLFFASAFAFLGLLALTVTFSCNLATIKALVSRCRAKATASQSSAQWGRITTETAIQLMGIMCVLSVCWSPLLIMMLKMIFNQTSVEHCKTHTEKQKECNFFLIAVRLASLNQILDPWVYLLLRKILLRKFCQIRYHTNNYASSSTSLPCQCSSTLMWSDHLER
Experimental: as §1, §2, §3, §4

[8] = target: T8, human prostanoid IP receptor (Homo sapiens, UniProt P43119); assay: FLIPR Ca2+ signaling PG antagonist assay, IP stable cell line; details: antagonist Kb vs standard agonist Cicaprost; HEK-293 EBNA cells
T8 construct: expressed in transfected cells
Experimental: as §1, §2, §3, §4

T4 sequence (P43116 whole entry): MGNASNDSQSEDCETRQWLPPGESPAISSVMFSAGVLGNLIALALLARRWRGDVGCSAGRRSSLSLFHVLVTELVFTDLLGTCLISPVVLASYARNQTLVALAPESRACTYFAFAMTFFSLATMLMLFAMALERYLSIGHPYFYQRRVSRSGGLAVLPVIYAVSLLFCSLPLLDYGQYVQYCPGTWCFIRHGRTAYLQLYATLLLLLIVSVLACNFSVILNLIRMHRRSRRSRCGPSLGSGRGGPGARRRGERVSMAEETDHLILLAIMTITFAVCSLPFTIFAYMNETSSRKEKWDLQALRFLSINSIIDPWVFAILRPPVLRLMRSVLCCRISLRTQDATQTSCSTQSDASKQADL
T6 sequence (P35408 whole entry): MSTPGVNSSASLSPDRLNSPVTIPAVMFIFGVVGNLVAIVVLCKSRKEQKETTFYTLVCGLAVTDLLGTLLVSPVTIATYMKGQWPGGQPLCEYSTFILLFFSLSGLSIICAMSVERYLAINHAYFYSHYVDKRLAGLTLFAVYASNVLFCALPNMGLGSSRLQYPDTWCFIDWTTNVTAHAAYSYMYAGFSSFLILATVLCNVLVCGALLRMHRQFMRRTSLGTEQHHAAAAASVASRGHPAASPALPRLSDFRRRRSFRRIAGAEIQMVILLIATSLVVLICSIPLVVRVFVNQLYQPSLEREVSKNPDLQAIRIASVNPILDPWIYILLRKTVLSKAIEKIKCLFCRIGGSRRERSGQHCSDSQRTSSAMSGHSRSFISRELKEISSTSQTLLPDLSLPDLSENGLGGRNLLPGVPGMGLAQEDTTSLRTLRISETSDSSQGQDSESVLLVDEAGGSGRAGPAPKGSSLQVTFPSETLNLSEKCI
T5 sequence (P43088 whole entry): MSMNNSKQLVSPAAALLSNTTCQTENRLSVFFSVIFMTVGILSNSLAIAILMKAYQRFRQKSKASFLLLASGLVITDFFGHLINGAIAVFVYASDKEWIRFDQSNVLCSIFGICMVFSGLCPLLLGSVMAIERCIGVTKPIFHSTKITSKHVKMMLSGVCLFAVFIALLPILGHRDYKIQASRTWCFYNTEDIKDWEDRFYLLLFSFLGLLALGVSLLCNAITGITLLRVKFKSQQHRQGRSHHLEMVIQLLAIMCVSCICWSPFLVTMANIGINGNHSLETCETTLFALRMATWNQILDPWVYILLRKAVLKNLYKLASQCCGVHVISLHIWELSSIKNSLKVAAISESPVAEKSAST
T8 sequence (P43119 whole entry): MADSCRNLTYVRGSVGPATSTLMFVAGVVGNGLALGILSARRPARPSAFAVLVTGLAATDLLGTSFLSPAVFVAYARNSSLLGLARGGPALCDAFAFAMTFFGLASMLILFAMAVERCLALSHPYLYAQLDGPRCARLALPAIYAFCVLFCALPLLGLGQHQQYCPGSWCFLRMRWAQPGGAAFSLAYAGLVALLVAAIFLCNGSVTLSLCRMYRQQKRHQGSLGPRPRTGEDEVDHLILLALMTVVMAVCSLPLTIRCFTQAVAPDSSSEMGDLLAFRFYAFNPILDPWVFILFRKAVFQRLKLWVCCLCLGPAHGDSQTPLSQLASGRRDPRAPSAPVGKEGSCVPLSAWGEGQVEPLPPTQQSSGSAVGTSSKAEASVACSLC

SMILES	Kb [1] [µM]	Kb [2] [µM]	Kb [3] [µM]	Kb [4] [µM]	Kb [5] [µM]	Kb [6] [µM]	Kb [7] [µM]	Kb [8] [µM]	TP (Kb) [1]	DP1 (Kb) [2]
CCC(CC)COc1ccc(Br)cc1Cn1nc(OCC(=O)O)cc1C [Example 1, {1-[5-bromo-2-(2-ethyl-butoxy)-benzyl]-5-methyl-1H-pyrazol-3-yl}-oxaacetic acid]	0.002	0.64	0.04	≥ 10	0.25	0.13	≥ 10	0.22		
CCC(CC)COc1ccc(Cl)cc1Cn1nc(OCC(=O)O)cc1C [Example 2, {1-[5-chloro-2-(2-ethyl-butoxy)-benzyl]-5-methyl-1H-pyrazol-3-yloxy}-acetic acid]		0.5	0.075	≥ 10	0.98	0.35	≥ 10	0.6	PAg	
Cc1cc(OCC(=O)O)nn1Cc1cc(Cl)ccc1OCc1ccc(Cl)cc1 [Example 3, {1-[5-chloro-2-(4-chloro-benzyloxy)-benzyl]-5-methyl-1H-pyrazol-3-yloxy}-acetic acid]	0.001	1	0.009	0.34	0.22	≥ 10	3.7	0.5		
Cc1cc(OCC(=O)O)nn1Cc1cc(Cl)ccc1OCC(C)C [Example 4, [1-(5-chloro-2-isobutoxy-benzyl)-5-methyl-1H-pyrazol-3-yloxy]-acetic acid]	0.015		0.11	≥ 10	1.7	≥ 10	≥ 10	≥ 10		PAg
